Data set [1] concerns genotype 1b Con1 HCV subgenomic replicons (Huh 5-2). Briefly: microbe, parasite or virus in culture. The settings on record: for EC50: Hepatitis C virus, GETYPE1B, Huh-5-2, 72 h, read-out: EC50, effective concentration 50%. As for the experimental part:
The highly permissive cell clone Huh 7-Lunet, as well as Huh 7 cells containing subgenomic HCV replicons I389luc-ubi-neo/NS3-3′/5.1 (Huh 5-2), I377NS3-3′/wt (Huh 9-13) or I389/hygro-ubi-NS3-3/5.1 (a kind gift from Dr. V. Lohmann and Dr. R. Bartenschlager) have been described recently [25]-[28]. Cells were grown in Dulbecco’s modified Eagle’s medium (DMEM; Gibco, Belgium) supplemented with 10% heat-inactivated fetal bovine serum (PAN-Biotech GmbH, Germany), 1X non-essential amino acids (Gibco), 100 IU/mL penicillin (Gibco), 100 µg/mL streptomycin (Gibco), and 250 µg/mL geneticin (G418; Gibco).
Antiviral assays for assessing the efficacy of the selected compounds were performed as described in literature [23]–[28]. Briefly, Huh 5-2 cells were seeded at a density of 5⋅10^3 cells per well in a tissue culture-treated white 96-well view plate (Techno Plastic Products AG, Switzerland) in complete DMEM supplemented with 250 µg/mL G418. […] After 3 days of incubation at 37°C cell culture medium was removed and luciferase activity was determined using the Bright-Glo™ Luciferase Assay System (Promega Corporation, The Netherlands). The luciferase signal was measured using a Synergy HT Multimode Reader (BioTek Instruments Inc, USA).

A further data set is described as follows: in vitro. The class given is cell-based. Conditions: human. As for the experimental part: Serial dilutions of the test compounds in complete DMEM (without G418) were added 24 hours after seeding. Cells were allowed to proliferate for 3 days at 37°C, after which the cell number was determined by CellTiter 96 AQueous One Solution Cell Proliferation Assay (Promega Corporation).

The target of data set [2] is T1, NS3 protease wild-type (Zn^+2-free) (Hepatitis C virus genotype 1b, UniProt P26663).
T1 construct: The N-terminal domain from full-length NS3 protein corresponding to NS3 protease was expressed and purified; made in house
T1 sequence (P26663 1027-1208): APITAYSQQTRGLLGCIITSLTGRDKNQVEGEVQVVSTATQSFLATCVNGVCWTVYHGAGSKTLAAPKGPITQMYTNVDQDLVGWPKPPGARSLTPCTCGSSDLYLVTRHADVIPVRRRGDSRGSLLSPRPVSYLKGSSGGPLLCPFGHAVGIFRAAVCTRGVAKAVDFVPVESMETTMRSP
Briefly: biochemical. The class given is binding. As for the experimental part: (§1) The N-terminal domain from full-length NS3 protein corresponding to NS3 protease was expressed and purified as described elsewhere, [18].
(§2) Ligand binding to NS3 protease was determined with a high-sensitivity isothermal titration VP-ITC microcalorimeter (MicroCal, USA). Protein samples and reference solutions were properly degassed and carefully loaded into the cells to avoid bubble formation during stirring. Experiments were performed with freshly prepared buffer-exchanged protein solutions, at 25°C in 100 mM sodium acetate, 2 mM EDTA, pH 5. NS3 protease 20 µM solution in the calorimetric cell was titrated with compound 300 µM solution. Control experiments were performed under the same experimental conditions, except for the presence of zinc (no addition of EDTA). The heat evolved after each ligand injection was obtained from the integral of the calorimetric signal. The heat due to the binding reaction was obtained as the difference between the reaction heat and the corresponding heat of dilution, the latter estimated as a constant heat throughout the experiment, and included as an adjustable parameter in the analysis. The association constant (Ka) and the enthalpy change (ΔH) were obtained through non-linear regression of experimental data to a model for a protein with a single ligand binding site. Data were analyzed using software developed in our laboratory implemented in Origin 7 (OriginLab, USA).
(§3) NS3 protease wild-type, pseudo-wild-type (containing the inactivating mutation S139A) and several variants containing drug-resistance associated mutations (R155K, R155Q, A156T, and D168A) were employed for determining the impact of these mutations on the interaction of the selected compounds with the protein (change in dissociation constant).

Data set [3] concerns the target T2, NS3 protease S139A (pseudo-wild-type) (Hepatitis C virus genotype 1b, UniProt P26663, S1165A).
T2 construct: The N-terminal domain from full-length NS3 protein corresponding to NS3 protease was expressed and purified; made in house
Briefly: ITC binding to Zn^+2-free NS3 protease, pseudo-wild-type S139A. The settings on record: 25°C, 100 mM sodium acetate, 2 mM EDTA, pH 5; relative error 15%. As for the experimental part: as §1, §2, §3

In the next data set the target is T3, NS3 protease S139A/R155K (Hepatitis C virus genotype 1b, UniProt P26663, R1181K/S1165A).
T3 construct: The N-terminal domain from full-length NS3 protein corresponding to NS3 protease was expressed and purified; made in house
T3 sequence (P26663 1027-1208 S1165A/R1181K): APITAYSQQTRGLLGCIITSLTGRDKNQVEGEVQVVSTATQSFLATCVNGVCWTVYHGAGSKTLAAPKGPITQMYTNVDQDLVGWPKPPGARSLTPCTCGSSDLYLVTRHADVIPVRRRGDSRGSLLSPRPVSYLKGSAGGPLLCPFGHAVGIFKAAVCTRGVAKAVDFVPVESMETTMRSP
Briefly: ITC binding to Zn^+2-free NS3 protease, S139A/R155K. The settings on record: 25°C, 100 mM sodium acetate, 2 mM EDTA, pH 5; relative error 15%. As for the experimental part: as §1, §2, §3

The target in a further data set is T4, NS3 protease S139A/D168A (Hepatitis C virus genotype 1b, UniProt P26663, D1194A/S1165A).
T4 construct: The N-terminal domain from full-length NS3 protein corresponding to NS3 protease was expressed and purified; made in house
T4 sequence (P26663 1027-1208 S1165A/D1194A): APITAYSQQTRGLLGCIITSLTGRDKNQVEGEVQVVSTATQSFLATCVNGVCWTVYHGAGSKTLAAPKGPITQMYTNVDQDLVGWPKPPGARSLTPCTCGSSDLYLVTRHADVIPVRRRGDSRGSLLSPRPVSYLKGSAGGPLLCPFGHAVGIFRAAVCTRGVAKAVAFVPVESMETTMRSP
Briefly: ITC binding to Zn^+2-free NS3 protease, S139A/D168A. The settings on record: 25°C, 100 mM sodium acetate, 2 mM EDTA, pH 5; relative error 15%. As for the experimental part: as §1, §2, §3

The next data set has as its target T5, NS3 protease S139A/R155Q (Hepatitis C virus genotype 1b, UniProt P26663, R1181Q/S1165A).
T5 construct: The N-terminal domain from full-length NS3 protein corresponding to NS3 protease was expressed and purified; made in house
Briefly: ITC binding to Zn^+2-free NS3 protease, S139A/R155Q. The settings on record: 25°C, 100 mM sodium acetate, 2 mM EDTA, pH 5; relative error 15%. As for the experimental part:
as §1, §2, §3

The next data set deals with T6, NS3 protease S139A/A156T (Hepatitis C virus genotype 1b, UniProt P26663, A1182T/S1165A).
T6 construct: The N-terminal domain from full-length NS3 protein corresponding to NS3 protease was expressed and purified; made in house
T6 sequence (P26663 1027-1208 S1165A/A1182T): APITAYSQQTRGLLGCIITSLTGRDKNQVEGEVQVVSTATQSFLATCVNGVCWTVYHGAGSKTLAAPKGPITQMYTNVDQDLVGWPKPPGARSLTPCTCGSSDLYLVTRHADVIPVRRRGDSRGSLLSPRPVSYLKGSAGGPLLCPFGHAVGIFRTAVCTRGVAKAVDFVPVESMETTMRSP
Briefly: ITC binding to Zn^+2-free NS3 protease, S139A/A156T. The settings on record: 25°C, 100 mM sodium acetate, 2 mM EDTA, pH 5; relative error 15%. As for the experimental part:
as §1, §2, §3

In data set [4] the test system is NS3 protease. The settings on record: assuming pseudo-first order association, from kobs of ref 23.
Data set [5] has as its target NS3 protease. Conditions: read-out: apparent dissociation constant for the NS3-zinc interaction; cited from earlier work.
For data set [6], the target named is NS3 protease. Conditions: read-out: dissociation constant for the NS3-zinc interaction; ITC, pH 5; cited from earlier work.
Data set [7] concerns NS3 protease. The settings on record: pH 7.5; cited from earlier work.
[8] abbreviates: ratio of CC50 to EC50 in Huh 5-2 cells.
The mark [9] stands for this setting: Huh 5-2 cells, 3 days proliferation, relative error 15%.

Read-outs that look alike come from different tables or passages of the source.

T5 sequence (P26663 1027-1208 S1165A/R1181Q): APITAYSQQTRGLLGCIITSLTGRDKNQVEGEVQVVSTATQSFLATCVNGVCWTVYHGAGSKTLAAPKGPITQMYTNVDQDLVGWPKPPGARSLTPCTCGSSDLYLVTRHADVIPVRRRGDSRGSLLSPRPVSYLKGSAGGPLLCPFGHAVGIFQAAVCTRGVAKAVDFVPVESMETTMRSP
T2 sequence (P26663 1027-1208 S1165A): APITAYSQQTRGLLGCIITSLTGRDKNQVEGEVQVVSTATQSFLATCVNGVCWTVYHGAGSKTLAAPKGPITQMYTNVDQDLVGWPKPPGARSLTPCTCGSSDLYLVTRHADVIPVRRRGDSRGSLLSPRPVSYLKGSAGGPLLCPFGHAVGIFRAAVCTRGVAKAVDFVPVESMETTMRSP

`COC(=O)Nc1nc2ccc(C(=O)c3cccs3)cc2[nH]1` [Compound 1]: in data set [1], the EC50 was 0.03 µM. In addition, the CC50/EC50 in [1] (setting [8]) is more than 4000. For the same compound, in “in vitro” (setting [9]), the CC50 was more than 120 µM. The Kd came to 1.9 µM in data set [2], 6.5 µM in data set [3], 5.3 µM at NS3 protease S139A/R155K and 2.6 µM on NS3 protease S139A/D168A.
`CC[C@@]1(O)C(=O)OCc2c1cc1n(c2=O)Cc2cc3ccccc3nc2-1` [Compound 3]: in data set [1], the EC50 was 0.03 µM. The compound further had a CC50 at 3 days in the data set “in vitro” (setting [9]) of 8 µM. For the same compound, in [2], the Kd is 2.5 µM.
In the case of `Nc1c2c(nc3ccccc13)CCCC2` [Compound 5], the CC50/EC50 in [1] was more than 2. Further, the EC50 in data set [1] was found to be 60 µM. The compound further yielded a CC50 in the data set “in vitro” of more than 120 µM. For the same compound, the Kd in data set [2] is 1.7 µM; in data set [3], 5.5 µM; on NS3 protease S139A/R155K it was 5.9 µM; at NS3 protease S139A/R155Q, 32 µM; on NS3 protease S139A/A156T it was 27 µM; on NS3 protease S139A/D168A it was 8.5 µM.
`COC(=O)[C@H]1[C@H]2C[C@@H]3c4[nH]c5cc(OC)ccc5c4CCN3C[C@H]2C[C@@H](OC(=O)/C=C/c2cc(OC)c(OC)c(OC)c2)[C@@H]1OC` [Compound 6]: in data set [1], the EC50 is 20 µM. The CC50/EC50 in [1] (setting [8]) is listed as more than 6. Moreover, the CC50 in “in vitro” (setting [9]) was more than 120 µM. The Kd turned out to be 40 µM in [2]; 24 µM in data set [3]; 61 µM at NS3 protease S139A/R155K; 23 µM on NS3 protease S139A/R155Q; 45 µM at NS3 protease S139A/A156T; 36 µM on NS3 protease S139A/D168A.
For `CC(=O)C1CCC2C3C=CC4=CC(=O)CCC4(C)C3CCC12C` (centres unmarked) [Compound 7], the EC50 in data set [1] is 2 µM. Further, the CC50/EC50 in data set [1] (setting [8]) was more than 60. For the same compound, the CC50 in “in vitro” (setting [9]) was more than 120 µM. Also, the Kd was found to be 16 µM in data set [2]; 5.7 µM in data set [3]; 16 µM on NS3 protease S139A/R155K; 4.2 µM on NS3 protease S139A/R155Q; 5.8 µM at NS3 protease S139A/A156T; 6.5 µM on NS3 protease S139A/D168A.
On to `CCOc1ccc(Cc2nccc3cc(OCC)c(OCC)cc23)cc1OCC` [Compound 8], for which the EC50 in data set [1] was 4 µM. In addition, the CC50/EC50 in [1] (setting [8]) is 15. This compound also returned a CC50 in “in vitro” (setting [9]) of 60 µM. For the same compound, the Kd in data set [2] was determined as 31 µM; in data set [3] it was 34 µM; on NS3 protease S139A/R155K, 9.2 µM; on NS3 protease S139A/R155Q it was 42 µM; at NS3 protease S139A/A156T, 22 µM; at NS3 protease S139A/D168A, 16 µM.
In the data set with NS3 protease [4], zinc came in with a kon of less than 0.0014 µM⁻¹ s⁻¹. Further, the Kd at NS3 protease [5] was approximately 1000 nM; on NS3 protease [6], 500 nM. Moreover, the “apparent association rate constant, kobs” value in the data set with NS3 protease [7] is “around 0.014 s^−1”.

The CC50 is the concentration giving 50% cytotoxicity. A low value points to greater toxicity to the cells. For orientation: kon means a measure of how fast the partners come together. A higher kon goes with faster complex formation.

(Values after publication PMC3728351, “Allosteric Inhibitors of the NS3 Protease from the Hepatitis C Virus” (PLoS ONE, 2013).)
